According to patent EP4732907A1, “STYRYL BENZOTHIAZOLIUM SALTS AND ITS USES AGAINST PARASITIC INFECTIONS” (priority 2024, dated 2026):

Experiments:
Format in all cases: cell-based
MRC-5 cell line = experiment: Cytotoxicity assay in MRC-5 cell line (alamarBlue assay, 72 h); settings: Homo sapiens, MRC5, Table 3
Description: Cell culture: Cell culture media were purchased from Gibco (Grand Island, NY, USA). Fetal bovine serum (FBS) was a product of Harlan-Seralab (Belton, U.K.). Supplements and other chemicals not listed in this section were obtained from Sigma Chemicals Co. (St. Louis, Mo., USA). Plastics for cell culture were supplied by Thermo Scientific™ BioLite. All tested compounds were dissolved in DMSO at a concentration of 10 mg/mL and stored at -20°C until use. Cell lines were maintained in Dulbecco's modified Eagle's medium (DMEM) containing glucose (1 g/L), glutamine (2 mM), penicillin (50 IU/mL), streptomycin (50 µg/mL) and amphotericin (1.25 µg/mL), supplemented with 10% FBS.
The stock solutions of the compounds were prepared in DMSO, with the final DMSO concentration in each well maintained below 1%. […] Subsequently, the compounds were added at various concentrations ranging from 0 to 100 µM, and the plates were incubated for 72 h. After the incubation period, 20 µL of resazurin solution (110 ng/ml) were added to each well and cells were incubated for 4 h. Then, cells were lysed with 50 µL/well of 3% SDS. The plate was incubated at 37 °C for an additional hour and subsequently, the fluorescence intensity was measure at the Infinite F200 plate reader (TECAN Austria, GmbH), exciting at 550 nm and recording the emission at 590 nm. […] Data are presented as the average of at least three independent measurements, each conducted in triplicate conditions.

[1] = tested on: L. major promastigotes (LucRE9); experiment: In vitro antileishmanial activity against Leishmania major promastigotes (MTT-based assay, 72 h); settings: Table 3; for IC50: Leishmania major, promastigotes, 72 h, MTT
Description: Parasite culture: L. major promastigotes (LucRE9) were cultured at 28 °C in 5% CO2 in modified RPMI-1640 medium (Invitrogen, Carlsbad, CA) with 10% hiFBS.
The anti-leishmanial activity of the compounds was determined using MTT-based assay (Sigma-Aldrich) (Antimicrob Agents Chemother 2011, 55, 3838-3844). The stock solutions of the compounds were prepared in DMSO with a final DMSO percentage in each well maintained below 1%. 4 × 10^6 parasites per mL were incubated at 28 °C in 96-well plates (50 µL/well) either alone or in the presence of increasing concentration of compounds DMSO for 72 h. After the incubation period, 10 µL of MTT (5 mg/ml) was added to each well and parasites were incubated for 4 h at 28°C. Subsequently, cell lysis was performed using 50 µL/well of 20% SDS. The plate was then incubated at 37 °C for an additional hour and then absorbance was measured at a wavelength of 540 using an Infinite F200 plate reader (TECAN Austria, GmbH). The IC50 was calculated as described above. Data were presented as the average of at least three independent measurements, each conducted in triplicate conditions.

[2] = tested on: Bloodstream forms (BSF) of T. brucei brucei 'single marker' S427 (S16); experiment: In vitro antitrypanosomal activity against Trypanosoma brucei (alamarBlue assay, 72 h); settings: Table 3; IC50 MRC-5 / IC50 T.brucei
Description: Data were presented as the average of at least three independent measurements, each conducted in triplicate conditions.

[3] = tested on: THP1 cells (human monocytic cell line); experiment: Cytotoxicity assay on PMA-differentiated THP1 (alamarBlue assay, 72 h); settings: THP-1, Table 4, PMA-differentiated THP1, 72 h
Description: Post-differentiation, the cells were washed and fresh medium was added (100 µL/well) before being reincubated. […] Data represent the average of three independent experiments, each conducted in triplicate.

[4] = tested on: Leishmania major amastigotes; experiment: In vitro antileishmanial activity against Leishmania major amastigotes in THP1 cells (luciferase assay, 72 h); settings: Table 4
Description: The antiparasitic activity of the compounds against the intracellular form of Leishmania major was evaluated using the Luciferase Assay System kit from Promega. […] Post-differentiation, the cells were washed and fresh medium was added (100 µL/well) before being reincubated. […] The plates were then incubated at 35°C in 5% CO2. After 24 hours, the wells were washed three times with PBS, and fresh medium with increasing concentrations of compounds was added (100 µL/well). After another 72 hours of incubation, the cells were then treated with 25 µL of lysis buffer and stored at -80°C. Following 24 hours, 25 µL of luciferase enzyme substrate was added to each well, and the luciferase activity of the amastigotes was determined using a TECAN Infinite F200 microplate reader. […] Data represent the average of three independent experiments, each conducted in triplicate.

| Structure (SMILES) | IC50 (MRC-5 cell line) | IC50 [1] | Selectivity Index (SI) L.major ([1]; IC50 MRC-5 / IC50 L.major promastigotes) | Selectivity Index (SI) T.brucei [2] | IC50 [3] | IC50 ([4]; Leishmania major, THP-1, intracellular amastigotes in THP1 macrophages, 72 h, read-out: IC50 (uM) L. major) | Selectivity Index (SI) MRC-5 ([4]; IC50 MRC-5 / IC50 L.major amastigotes) | Selectivity Index (SI) THP-1 ([4]; IC50 THP-1 / IC50 L. major amastigotes) |
| --- | --- | --- | --- | --- | --- | --- | --- | --- |
| C[n+]1c(/C=C/c2ccc(N(c3ccccc3)c3ccccc3)cc2)sc2ccccc21 [Compound 2] | 5.13 ± 0.76 µM | 0.02 ± 0.011 µM | 252.0 | 15.1 | 0.93 ± 0.02 µM | 0.0281 ± 0.00473 µM | 182 | 33 |
| C[n+]1c(/C=C/c2cc3c4c(c2)CCCN4CCC3)sc2ccccc21 [Compound 3] | 0.08 ± 0.03 µM | 0.0065 ± 0.0029 µM |  |  |  |  |  |  |
| CN(C)c1ccc(/C=C/c2sc3ccccc3[n+]2C)cc1 [Compound 1, (E)-2-(4-(Dimethylamino)styryl)-3-methylbenzo[d]thiazol-3-ium iodide] | 1.52 ± 0.37 µM | 0.02 ± 0.013 µM |  |  |  |  |  |  |
